Assay: Storage stability of liquid compositions in a sealed container, 8 weeks at 40° C., loss by HPLC
Type: physicochemical
Details: inert ingredients of Composition #7 of Table 3, aged 8 weeks at 40° C.

COC(=O)c1sccc1S(=O)(=O)NC(=O)Nc1nc(C)nc(OC)n1 [Thifensulfuron-methyl, thifensulfuron-methyl]
relative loss of thifensulfuron-methyl: less than 5 % w/w

From patent publication US11109588B2, “Stable liquid formulations and methods of using the same” (priority 2019, dated 2021)
